Where a name gives a salt, the structure may show the parent alone. Calls of active or inactive are those of the source.
How the values were obtained:
[1] = biological target: Beta-2 adrenergic receptor (Homo sapiens, UniProt P07550); assay: beta2AR agonists driving receptor internalization, dose response, cell-based, FAP fluorogen, flow cytometry, cherry pick 1 (AID 588763); format: functional
[2] = biological target: T1, Short transient receptor potential channel 4 (Mus musculus, UniProt Q9QUQ5); assay: mouse TRPC4 channel inhibitors, dose response, cell-based, HEK293 TRPC4/mu-opioid, Fluo-4 calcium (AID 434942); format: functional;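 further: potency of inhibitors blocking the TRPC4 calcium response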
T1 sequence (Q9QUQ5 whole entry): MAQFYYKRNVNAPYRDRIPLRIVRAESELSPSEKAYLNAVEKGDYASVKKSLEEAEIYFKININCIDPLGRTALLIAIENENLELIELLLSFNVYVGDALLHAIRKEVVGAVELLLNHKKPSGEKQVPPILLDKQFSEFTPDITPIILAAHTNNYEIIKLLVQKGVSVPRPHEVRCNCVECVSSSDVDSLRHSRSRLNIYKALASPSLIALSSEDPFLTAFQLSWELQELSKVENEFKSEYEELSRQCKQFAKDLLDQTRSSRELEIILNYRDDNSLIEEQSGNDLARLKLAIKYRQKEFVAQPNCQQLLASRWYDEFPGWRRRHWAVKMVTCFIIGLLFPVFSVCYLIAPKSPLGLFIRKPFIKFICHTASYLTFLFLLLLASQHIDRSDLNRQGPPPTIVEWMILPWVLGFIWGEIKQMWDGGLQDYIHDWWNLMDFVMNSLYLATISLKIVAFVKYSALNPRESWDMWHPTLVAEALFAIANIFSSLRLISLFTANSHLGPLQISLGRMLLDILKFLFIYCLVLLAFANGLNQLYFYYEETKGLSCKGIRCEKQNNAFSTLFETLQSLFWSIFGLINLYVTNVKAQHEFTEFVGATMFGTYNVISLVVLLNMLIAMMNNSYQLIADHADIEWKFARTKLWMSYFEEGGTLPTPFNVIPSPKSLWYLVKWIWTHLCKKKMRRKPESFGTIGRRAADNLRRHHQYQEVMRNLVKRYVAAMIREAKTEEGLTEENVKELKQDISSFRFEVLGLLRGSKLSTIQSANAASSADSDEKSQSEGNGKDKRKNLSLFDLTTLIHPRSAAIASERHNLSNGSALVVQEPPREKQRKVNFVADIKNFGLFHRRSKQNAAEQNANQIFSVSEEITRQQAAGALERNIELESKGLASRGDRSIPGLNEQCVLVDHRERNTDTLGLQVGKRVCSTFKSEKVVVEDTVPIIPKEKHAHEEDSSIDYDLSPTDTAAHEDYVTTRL

INS1 = assay: beta cell apoptosis inhibitors, cytokine rescue, dose response, luminescence, retest (AID 449756); format: functional, cell-based; settings: Rattus norvegicus;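 further: cell death triggered by IL-1 beta plus TNF-alpha plus IFN-gamma mixture; protective hits raise ATP signal compared with cytokine alone wells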
Protein Wnt-3a = Protein Wnt-3a (Mus musculus, UniProt P27467); assay: Wnt3a-driven reporter signaling inhibition, dose response, selectivity assay for Gli-SUFU antagonist project, Wnt-LIGHT cells, luminescence (AID 651570); format: functional; settings: read-out: IC50_Mean;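 further: Wnt-LIGHT reporter cells stimulated with conditioned medium from Wnt3a-producing cells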
Sequence of Protein Wnt-3a (P27467 whole entry): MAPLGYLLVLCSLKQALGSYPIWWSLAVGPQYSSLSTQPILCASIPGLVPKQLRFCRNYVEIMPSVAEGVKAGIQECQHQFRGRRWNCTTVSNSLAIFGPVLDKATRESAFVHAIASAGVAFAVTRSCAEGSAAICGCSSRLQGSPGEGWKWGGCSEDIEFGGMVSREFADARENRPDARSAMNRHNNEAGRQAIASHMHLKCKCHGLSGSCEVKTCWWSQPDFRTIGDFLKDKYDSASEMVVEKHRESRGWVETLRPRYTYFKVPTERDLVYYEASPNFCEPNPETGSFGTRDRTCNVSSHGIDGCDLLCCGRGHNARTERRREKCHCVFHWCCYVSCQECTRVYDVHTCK

Galanin receptor type 3 = biological target: T2, Galanin receptor type 3 (Homo sapiens, UniProt O60755); assay: Fluorescence-based cell-based primary high throughput dose response assay to identify antagonists of the Galanin Receptor 3 (GalR3).; format: functional
T2 sequence (O60755 whole entry): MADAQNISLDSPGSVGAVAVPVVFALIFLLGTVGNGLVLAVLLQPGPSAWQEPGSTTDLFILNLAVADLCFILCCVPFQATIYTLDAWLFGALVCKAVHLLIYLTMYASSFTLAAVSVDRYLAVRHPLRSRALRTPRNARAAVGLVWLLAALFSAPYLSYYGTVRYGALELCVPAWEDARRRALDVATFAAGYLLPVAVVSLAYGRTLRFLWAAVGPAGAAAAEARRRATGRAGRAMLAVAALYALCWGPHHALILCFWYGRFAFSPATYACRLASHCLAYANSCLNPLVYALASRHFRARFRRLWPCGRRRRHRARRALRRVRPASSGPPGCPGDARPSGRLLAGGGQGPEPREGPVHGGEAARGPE

cells = format: functional, cell-based; settings: HEK-CNG
[3] = biological target: T3, COUP transcription factor 2 (Homo sapiens, UniProt P24468); assay: Luminescence-based cell-based high throughput dose response assay to identify inhibitors of COUP-TFII (NR2F2).; format: functional;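 further: HEK293 cells transiently cotransfected with COUP-TFII expression vector and reporter; luciferase reporter luminescence driven by COUP-TFII from the pX2-168 reporter plasmid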
T3 sequence (P24468 whole entry): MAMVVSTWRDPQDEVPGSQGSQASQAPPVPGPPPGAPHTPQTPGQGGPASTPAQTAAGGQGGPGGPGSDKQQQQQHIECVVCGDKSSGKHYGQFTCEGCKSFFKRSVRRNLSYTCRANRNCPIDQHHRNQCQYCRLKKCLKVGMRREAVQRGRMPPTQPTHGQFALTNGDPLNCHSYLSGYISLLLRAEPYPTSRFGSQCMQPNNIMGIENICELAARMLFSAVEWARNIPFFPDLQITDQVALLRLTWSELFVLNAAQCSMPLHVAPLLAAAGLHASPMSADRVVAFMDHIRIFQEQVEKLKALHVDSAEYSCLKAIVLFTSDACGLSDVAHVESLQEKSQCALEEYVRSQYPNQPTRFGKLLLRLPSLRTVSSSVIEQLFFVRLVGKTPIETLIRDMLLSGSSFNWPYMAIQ

[4] = AlphaScreen signal interference compounds, dose response, artefact control for ARNT-TACC3 interaction inhibitor project, biochemical, luminescence, cherry-pick (AID 651705); format: functional;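 further: AlphaScreen bead proximity signal that flags compounds interfering with the detection technology; potency reflects signal decrease which marks the compound as an assay artifact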
Cysteine protease ATG4B = biological target: T4, Cysteine protease ATG4B (Homo sapiens, UniProt Q9Y4P1); format: functional;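 further: Fluorescence-based dose-response confirmation assay measuring inhibition of ATG4B activity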
T4 sequence (Q9Y4P1 whole entry): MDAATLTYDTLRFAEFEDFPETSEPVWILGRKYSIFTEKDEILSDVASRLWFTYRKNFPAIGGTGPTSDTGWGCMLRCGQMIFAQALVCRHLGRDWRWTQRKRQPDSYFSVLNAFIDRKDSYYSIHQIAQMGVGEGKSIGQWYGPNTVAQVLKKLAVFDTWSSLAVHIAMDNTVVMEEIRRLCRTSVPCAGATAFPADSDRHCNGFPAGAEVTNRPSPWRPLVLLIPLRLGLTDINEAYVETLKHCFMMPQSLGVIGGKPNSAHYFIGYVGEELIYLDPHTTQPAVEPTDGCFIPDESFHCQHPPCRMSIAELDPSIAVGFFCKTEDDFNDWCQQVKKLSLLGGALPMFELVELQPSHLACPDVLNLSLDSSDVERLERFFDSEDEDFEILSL

Phospholipase A2 = Phospholipase A2 (Homo sapiens, UniProt P04054); format: functional;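 further: confirmatory dose-response counterscreen on phospholipase A2, testing hits that came from an ultra-high-throughput screen for ATG4B inhibitors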
Sequence of Phospholipase A2 (P04054 whole entry): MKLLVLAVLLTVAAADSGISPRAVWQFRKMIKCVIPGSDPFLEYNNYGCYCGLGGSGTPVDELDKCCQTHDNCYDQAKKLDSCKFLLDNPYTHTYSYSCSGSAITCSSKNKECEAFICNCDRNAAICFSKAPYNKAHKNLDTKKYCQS

[5] = biological target: T5, High affinity choline transporter 1 (Homo sapiens, UniProt Q9GZV3); assay: CHT inhibitors, dose response, cell-based, 5-point CRC, membrane potential dye (AID 504840); format: functional
T5 sequence (Q9GZV3 whole entry): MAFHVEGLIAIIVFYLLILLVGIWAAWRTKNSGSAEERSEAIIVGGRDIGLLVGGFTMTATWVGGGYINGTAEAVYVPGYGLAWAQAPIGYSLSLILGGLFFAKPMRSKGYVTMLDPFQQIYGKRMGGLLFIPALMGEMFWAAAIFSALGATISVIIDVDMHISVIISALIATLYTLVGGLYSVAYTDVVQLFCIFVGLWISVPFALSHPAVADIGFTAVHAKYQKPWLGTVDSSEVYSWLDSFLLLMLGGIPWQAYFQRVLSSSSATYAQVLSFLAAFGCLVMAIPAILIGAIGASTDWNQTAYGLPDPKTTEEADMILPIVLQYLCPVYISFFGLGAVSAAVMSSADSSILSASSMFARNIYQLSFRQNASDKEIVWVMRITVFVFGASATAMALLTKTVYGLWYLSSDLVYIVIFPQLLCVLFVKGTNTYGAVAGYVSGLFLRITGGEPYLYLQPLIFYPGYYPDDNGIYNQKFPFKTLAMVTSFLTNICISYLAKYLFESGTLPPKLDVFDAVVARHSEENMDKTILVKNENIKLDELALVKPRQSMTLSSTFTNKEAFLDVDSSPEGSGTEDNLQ

H9c2 = assay: cells; format: functional, cell-based; settings: Rattus norvegicus, H9c2, Myocardium;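 further: confirmatory concentration-response retest of ultra-high-throughput screening hits for modulation of myocardial damage; cell death induced by hydrogen peroxide oxidative stress; compound pretreatment for 60 min then peroxide exposure for 2 h; potency is for protecting the cells against peroxide damage rather than for killing them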
[6] = biological target: Dual specificity tyrosine-phosphorylation-regulated kinase 1A (Rattus norvegicus, UniProt Q63470); format: biochemical, Homo sapiens
[7] = biological target: DNA repair and recombination protein RAD54-like (Homo sapiens, UniProt Q92698); assay: inhibitors of human RAD54 branch migration, confirmation, biochemical, fluorescence, cherry-picked samples, dose series (AID 651657); format: functional
Sequence of DNA repair and recombination protein RAD54-like (Q92698 whole entry): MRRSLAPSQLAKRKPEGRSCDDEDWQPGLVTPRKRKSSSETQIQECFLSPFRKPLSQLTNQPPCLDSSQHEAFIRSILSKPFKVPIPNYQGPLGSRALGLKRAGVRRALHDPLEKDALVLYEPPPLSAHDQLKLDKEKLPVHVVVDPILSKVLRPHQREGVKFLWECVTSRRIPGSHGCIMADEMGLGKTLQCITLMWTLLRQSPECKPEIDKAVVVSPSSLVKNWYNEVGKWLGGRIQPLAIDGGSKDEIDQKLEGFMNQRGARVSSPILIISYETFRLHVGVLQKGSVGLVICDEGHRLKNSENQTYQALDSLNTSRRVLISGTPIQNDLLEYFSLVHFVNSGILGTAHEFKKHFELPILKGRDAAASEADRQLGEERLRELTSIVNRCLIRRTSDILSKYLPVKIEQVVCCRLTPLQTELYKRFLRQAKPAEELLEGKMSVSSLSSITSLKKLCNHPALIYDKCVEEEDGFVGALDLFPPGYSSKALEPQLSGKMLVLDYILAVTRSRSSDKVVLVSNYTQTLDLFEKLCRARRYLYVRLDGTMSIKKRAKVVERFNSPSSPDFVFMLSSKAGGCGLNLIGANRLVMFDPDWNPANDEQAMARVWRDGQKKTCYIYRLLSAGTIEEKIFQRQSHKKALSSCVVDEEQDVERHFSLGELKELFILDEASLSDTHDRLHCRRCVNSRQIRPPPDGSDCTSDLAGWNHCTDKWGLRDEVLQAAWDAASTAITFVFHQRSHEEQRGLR

[8] = biological target: T6, Rac GTPase-activating protein 1 (Homo sapiens, UniProt Q9H0H5); assay: MgcRacGAP GTPase-activating activity inhibitors, confirmation, biochemical, ADP Hunter fluorescence, primary and confirmatory (AID 624330); format: functional
T6 sequence (Q9H0H5 whole entry): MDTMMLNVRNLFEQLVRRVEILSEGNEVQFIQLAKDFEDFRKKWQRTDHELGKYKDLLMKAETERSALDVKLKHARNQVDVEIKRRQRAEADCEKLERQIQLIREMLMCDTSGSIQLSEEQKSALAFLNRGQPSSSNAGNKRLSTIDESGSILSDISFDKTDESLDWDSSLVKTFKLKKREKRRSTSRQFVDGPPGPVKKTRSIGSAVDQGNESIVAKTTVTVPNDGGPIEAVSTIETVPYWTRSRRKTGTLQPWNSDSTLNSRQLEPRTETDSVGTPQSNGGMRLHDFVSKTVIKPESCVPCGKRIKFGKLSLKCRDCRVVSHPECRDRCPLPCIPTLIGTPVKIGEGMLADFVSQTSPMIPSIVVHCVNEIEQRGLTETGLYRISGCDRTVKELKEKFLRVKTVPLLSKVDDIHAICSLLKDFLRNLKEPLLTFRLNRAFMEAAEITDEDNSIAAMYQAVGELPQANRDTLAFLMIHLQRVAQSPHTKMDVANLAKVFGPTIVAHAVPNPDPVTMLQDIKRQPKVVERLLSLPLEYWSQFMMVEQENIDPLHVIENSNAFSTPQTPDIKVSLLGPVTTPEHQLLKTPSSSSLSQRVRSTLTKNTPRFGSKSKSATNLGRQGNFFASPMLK

Sequence of Beta-2 adrenergic receptor (P07550 whole entry): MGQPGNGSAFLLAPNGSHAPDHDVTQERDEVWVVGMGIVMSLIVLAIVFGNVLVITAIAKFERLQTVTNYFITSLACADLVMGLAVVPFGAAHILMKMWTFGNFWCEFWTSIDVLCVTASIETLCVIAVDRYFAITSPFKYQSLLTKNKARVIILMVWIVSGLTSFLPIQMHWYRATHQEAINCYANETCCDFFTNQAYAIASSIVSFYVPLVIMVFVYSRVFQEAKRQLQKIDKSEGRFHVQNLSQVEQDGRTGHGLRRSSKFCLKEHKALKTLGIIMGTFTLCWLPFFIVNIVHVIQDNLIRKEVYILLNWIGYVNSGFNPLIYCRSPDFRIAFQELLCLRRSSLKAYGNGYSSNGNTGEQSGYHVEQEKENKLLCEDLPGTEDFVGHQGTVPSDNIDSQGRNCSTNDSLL

With `CC1=C(C#N)C(c2cn(-c3ccccc3)nc2-c2cccs2)C(C#N)=C(C)N1` the EC50 [1] was 0.327 µM (inactive).

For `Cc1nc2ccccc2n1Cc1ccc(Br)cc1`, the EC50 [2] was 0.668 µM (active), the AC50 (INS1) was 2.84 µM (active) and the IC50 (Protein Wnt-3a) was 0.369 µM (active). For the same compound, the IC50 (Galanin receptor type 3) was 0.14 µM (active), the EC50 (cells) was > 29.9 µM (inactive) and the IC50 [3] was 4.4 µM (active).

For `O=C(NCCCn1ccnc1)C(=O)NCC1OCCN1S(=O)(=O)c1ccc2c(c1)OCCO2` (stereo not drawn), the AC50 [4] was 89.6 µM (active).

In the case of `Cc1cccc(/N=C/c2cc(Br)cc(Cl)c2O)c1`, the IC50 (Cysteine protease ATG4B) is reported as 8.52 µM (active), the IC50 (Phospholipase A2) is reported as 12.1 µM (active) and the IC50 [5] is reported as 13.3 µM (active). For the same compound, the IC50 (H9c2) was > 79 µM (inactive).

For `CSCC[C@H](NC(=O)OC(C)(C)C)C(=O)N/N=C/c1cccc2cccnc12`, the IC50 (H9c2) was > 79 µM (inactive) and the AC50 [4] was 132 µM (active).

With `CNCC(O)c1ccc(OC(=O)C(C)(C)C)c(OC(=O)C(C)(C)C)c1` (stereo not drawn) [DIPIVEFRIN HYDROCHLORIDE] the EC50 [1] was 7.13 µM (active).

With `Cc1[nH]ccc2c1[nH]c1cc(=O)ccc12` [HARMOL] the AC50 [6] was 0.298 µM (active), the AC50 [7] was 23.9 µM (active) and the IC50 [8] was 44.9 µM (active).

— ChEMBL document CHEMBL1201862, “PubChem BioAssay data set” (2004)
